From patent US20250382305A1 (PTC THERAPEUTICS, INC., priority 2022, published 2025) come the findings set out here.

In one assay the test system is ATXN3 pre-mRNA. Kind of assay: RT-qPCR Assay to Quantify Exon 4 Skipping in ATXN3 pre-mRNA in Cells. It counts as cell-based. As to conditions: percent exon 4 skipping in ATXN3 pre-mRNA, RT-qPCR of cell lysates; average IC50. An outline of the steps:
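Cells plated at 10,000/well onto a 7-point, 3.16-fold DMSO dilution series (duplicates), incubated 24 h at 37 °C, then lysed. Exon 4 skipping measured by one-step RT-qPCR (48 °C RT, 40 cycles); IC50 interpolated from dose-response fit of percent skipping.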
A general note: Real-time PCR tracks product formation cycle by cycle.

Assay [1] deals with Total ATXN3 (tATXN3) protein. Kind of assay: Endogenous Total ATXN3 (tATXN3) Protein Assay (MSD immunoassay of cell lysates). It counts as cell-based. Conditions: average IC50, total ATXN3 protein in cell lysate after 48 h with compound (Table 1). An outline of the steps: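 Cells in DMEM/10% FBS were plated at 10,000 per well onto 7-point, 3.16-fold compound dilutions in duplicate for 48 h at 37° C, then lysed. Total ATXN3 in lysates was measured by MSD sandwich immunoassay: mouse anti-ATXN3 capture, rabbit anti-ATXN3 detection, SULFO-TAG anti-rabbit. Average IC50 was reported in star bins.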

`N[C@@H]1CCCCC[C@H]1c1sc2c(NCc3cccs3)cc(Cl)nc2c1Cl` [Compound 78, 2-((1R,2R)-2-aminocycloheptyl)-3,5-dichloro-N-(thiophen-2-ylmethyl)thieno[3,2-b]pyridin-7-amine]: the IC50 (in the assay on ATXN3 pre-mRNA; in assay [1]) was > 1 µM in each case.

Turning to `N[C@H]1CCCCC[C@@H]1c1sc2c(NCc3cccs3)cc(Cl)nc2c1Cl` [Compound 79, 2-((1S,2S)-2-aminocycloheptyl)-3,5-dichloro-N-(thiophen-2-ylmethyl)thieno[3,2-b]pyridin-7-amine], the half-maximal inhibitory concentration (IC50) (with ATXN3 pre-mRNA; in assay [1]) was 0.03 to 0.3 µM throughout.

For `N[C@@H]1CCCCC[C@H]1c1cc2nc(Cl)cc(NCc3cccs3)c2s1` [Compound 80, 2-((1R,2R)-2-aminocycloheptyl)-5-chloro-N-(thiophen-2-ylmethyl)thieno[3,2-b]pyridin-7-amine], the IC50 (in the assay on ATXN3 pre-mRNA; in assay [1]) was > 1 µM throughout.

Consider `Cc1c([C@H]2CCCCC[C@@H]2N)sc2c(NCc3cccs3)cc(Cl)nc12` [Compound 81, 2-((1S,2S)-2-aminocycloheptyl)-5-chloro-3-methyl-N-(thiophen-2-ylmethyl)thieno[3,2-b]pyridin-7-amine], for which the half-inhibitory concentration (IC50) (in the assay with ATXN3 pre-mRNA; in assay [1]) was 0.03 to 0.3 µM in each case.

`Cc1c([C@@H]2CCCCC[C@@H]2N)sc2c(NCc3cccs3)cc(Cl)nc12` [Compound 82, 2-((1R,2S)-2-aminocycloheptyl)-5-chloro-3-methyl-N-(thiophen-2-ylmethyl)thieno[3,2-b]pyridin-7-amine]: the IC50 (with ATXN3 pre-mRNA; in assay [1]) was 0.3 to 1 µM in each case.

As for `Cc1c([C@@H]2CCCCC[C@H]2N)sc2c(NCc3cccs3)cc(Cl)nc12` [Compound 83, 2-((1R,2R)-2-aminocycloheptyl)-5-chloro-3-methyl-N-(thiophen-2-ylmethyl)thieno[3,2-b]pyridin-7-amine], the IC50 (in the assay with ATXN3 pre-mRNA; in assay [1]) was > 1 µM each time.

For the molecule `Cc1c([C@H]2CCCCC[C@H]2N)sc2c(NCc3cccs3)cc(Cl)nc12` [Compound 84, 2-((1S,2R)-2-aminocycloheptyl)-5-chloro-3-methyl-N-(thiophen-2-ylmethyl)thieno[3,2-b]pyridin-7-amine], the IC50 (with ATXN3 pre-mRNA; in assay [1]) was > 1 µM in each case.

In the case of `N[C@@H]1CCCCC[C@@H]1c1cc2nc(Cl)cc(NCc3cccs3)c2s1` [Compound 88, 2-((1S,2R)-2-aminocycloheptyl)-5-chloro-N-(thiophen-2-ylmethyl)thieno[3,2-b]pyridin-7-amine], the IC50 (with ATXN3 pre-mRNA; in assay [1]) was > 1 µM in each case.

As for `N[C@H]1CCCCC[C@H]1c1cc2nc(Cl)cc(NCc3cccs3)c2s1` [Compound 89, 2-((1R,2S)-2-aminocycloheptyl)-5-chloro-N-(thiophen-2-ylmethyl)thieno[3,2-b]pyridin-7-amine], the half-inhibitory concentration (IC50) (in the assay with ATXN3 pre-mRNA; in assay [1]) was > 1 µM throughout.

Consider `N[C@H]1CCCCC[C@@H]1c1cc2nc(Cl)cc(NCc3cccs3)c2s1` [Compound 90, 2-((1S,2S)-2-aminocycloheptyl)-5-chloro-N-(thiophen-2-ylmethyl)thieno[3,2-b]pyridin-7-amine], for which the IC50 (in the assay with ATXN3 pre-mRNA; in assay [1]) was 0.3 to 1 µM throughout.

Take `N[C@H]1CCCCCC[C@H]1c1sc2c(NCc3cccs3)cc(Cl)nc2c1Cl` [Compound 91, 2-((1R,2S)-2-aminocyclooctyl)-3,5-dichloro-N-(thiophen-2-ylmethyl)thieno[3,2-b]pyridin-7-amine]: the IC50 (in the assay with ATXN3 pre-mRNA; in assay [1]) was > 1 µM in each case.

With `Cc1c([C@@H]2CCCCCC[C@H]2N)sc2c(NCc3cccs3)cc(Cl)nc12` [Compound 92, 2-((1R,2R)-2-aminocyclooctyl)-5-chloro-3-methyl-N-(thiophen-2-ylmethyl)thieno[3,2-b]pyridin-7-amine], the concentration for half-maximal inhibition (IC50) (in the assay on ATXN3 pre-mRNA; in assay [1]) was > 1 µM in each case.

Regarding `Cc1c([C@H]2CCCCCC[C@H]2N)sc2c(NCc3cccs3)cc(Cl)nc12` [Compound 93, 2-((1S,2R)-2-aminocyclooctyl)-5-chloro-3-methyl-N-(thiophen-2-ylmethyl)thieno[3,2-b]pyridin-7-amine], the IC50 (with ATXN3 pre-mRNA; in assay [1]) was > 1 µM throughout.
